DBAASP
≈ marks a conversion by molar mass, not a printed value. Where “and” joins values, the source holds several entries; their conditions need not be identical. Equal entries are not always repeated. One block for each compound: values may come before it.

Legend:
Test in all cases: ≥ marks a high value that may be exact or a test limit, other limits are often not marked, values filed in µg/mL are converted to µM
Staphylococcus aureus = tested on: Staphylococcus aureus
Escherichia coli = tested on: Escherichia coli
[1] = tested on: Bifidobacterium longum subsp. infantis
[2] = tested on: Staphylococcus carnosus KHS
[3] = tested on: Rhodococcus rhodochrous X15
[4] = tested on: Bacillus licheniformis X39
[5] = tested on: Staphylococcus aureus ATCC 2592
Leuconostoc lactis = tested on: Leuconostoc lactis
Listeria innocua = tested on: Listeria innocua
Streptococcus uberis = tested on: Streptococcus uberis
Pasteurella multocida = tested on: Pasteurella multocida
Bacillus cereus = tested on: Bacillus cereus
Micrococcus luteus = tested on: Micrococcus luteus
[6] = tested on: Staphylococcus epidermidis
[7] = tested on: Staphylococcus epidermidis ATCC 12228
[8] = tested on: Pseudomonas aeruginosa 73
[9] = tested on: Pseudomonas aeruginosa ATCC 27853
[10] = tested on: Acinetobacter baumannii 9931
[11] = tested on: Pseudomonas aeruginosa ATCC 9027
Escherichia coli 780 = tested on: Escherichia coli 780
[12] = tested on: Acinetobacter baumannii ATCC 19606
[13] = tested on: Pseudomonas aeruginosa 50
[14] = tested on: Klebsiella pneumoniae ATCC 700603
[15] = tested on: Acinetobacter baumannii 97830
[16] = tested on: Bacillus subtilis ATCC 23857
Escherichia coli 804 = tested on: Escherichia coli 804
[17] = tested on: Staphylococcus aureus 113
Staphylococcus aureus 75 = tested on: Staphylococcus aureus 75
[18] = tested on: Staphylococcus aureus ATCC 29213
[19] = tested on: Staphylococcus aureus ATCC 43300
Yersinia pestis KIM pYV = tested on: Yersinia pestis KIM pYV
[20] = tested on: Brucella abortus 9.49 (per-)
[21] = tested on: Escherichia coli ATCC 25922
[22] = tested on: Staphylococcus aureus ΔmprFpRBsyn
[23] = tested on: Bordetella bronchiseptica CUN 11844-99
[24] = tested on: Pseudomonas aeruginosa CUN 4158-02
[25] = tested on: Staphylococcus aureus ΔmprF
[26] = tested on: Trichophyton mentagrophytes TIMM 1189
[27] = tested on: Staphylococcus aureus JCM 2151
[28] = tested on: Candida albicans TIMM 0144
[29] = tested on: Staphylococcus aureus ATCC 6535
[30] = tested on: Enterobacter cloacae ATCC 23355
Candida albicans = tested on: Candida albicans
[31] = tested on: Bacillus subtilis CCT 2471
[32] = tested on: Staphylococcus saprophyticus
[33] = tested on: Escherichia coli CCT 1371
[34] = tested on: Klebsiella pneumoniae ATCC 13883
Fusarium graminearum = tested on: Fusarium graminearum
[35] = tested on: Yersinia enterocolitica ATCC 23715

SMILES: NCC(=O)N[C@@H](Cc1c[nH]c2ccccc12)C(=O)N[C@@H](CCCN=C(N)N)C(=O)N[C@@H](Cc1c[nH]c2ccccc12)C(=O)N[C@@H](Cc1c[nH]c2ccccc12)C(=O)N[C@@H](Cc1c[nH]c2ccccc12)C(=O)N[C@@H](CCCN=C(N)N)C(=O)N[C@@H](Cc1c[nH]c2ccccc12)C(=O)NCC(N)=O [GWRWWWRWG]
MIC [7]: 8 µM (≈ 11 µg/mL) | MIC [8]: ≥ 32 µM | MIC [9]: 64 µM (≈ 88 µg/mL) | MIC [10]: 8 µM (≈ 11 µg/mL) | MIC [11]: 64 µM (≈ 88 µg/mL) | MIC (Escherichia coli 780): 8 µM (≈ 11 µg/mL) | MIC [12]: 32 µM (≈ 44 µg/mL) | MIC [13]: ≥ 32 µM | MIC [14]: 32 µM (≈ 44 µg/mL) | MIC [15]: 16 µM (≈ 22 µg/mL) | MIC [16]: 4 µM (≈ 5.5 µg/mL) | MIC (Escherichia coli 804): 16 µM (≈ 22 µg/mL) | MIC [17]: 8 µM (≈ 11 µg/mL) | MIC (Staphylococcus aureus 75): 8 µM (≈ 11 µg/mL) | MIC [18]: 8 µM (≈ 11 µg/mL)

SMILES: CC[C@H](C)[C@H](NC(=O)[C@H](CCCN=C(N)N)NC(=O)[C@H](CCCN=C(N)N)NC(=O)[C@H](CC(C)C)NC(=O)[C@H](Cc1ccccc1)NC(=O)[C@@H](NC(=O)[C@H](CCCN=C(N)N)NC(=O)[C@H](CCSC)NC(=O)[C@@H](NC(=O)[C@H](CCCCN)NC(=O)[C@H](CCCCN)NC(=O)[C@H](CO)NC(=O)[C@@H](NC(=O)[C@@H](N)CCCCN)[C@@H](C)CC)[C@@H](C)CC)[C@@H](C)O)C(=O)N[C@@H](CO)C(=O)N[C@@H](CCCCN)C(=O)N[C@@H](CC(=O)O)C(=O)N[C@H](C(=O)N[C@@H](CC(C)C)C(=O)N[C@H](C(=O)NCC(=O)N[C@@H](CCCCN)C(=O)N[C@@H](CCCCN)C(N)=O)[C@@H](C)O)[C@@H](C)CC [KISKKIMRTFLRRISKDILTGKK]
MIC [19]: > 92.7 µM | MIC (Yersinia pestis KIM pYV): ≥ 46.4 µM | MIC [20]: 0.724 µM (≈ 2 µg/mL) | MIC (Staphylococcus aureus): 11.6 µM (≈ 32 µg/mL) | MIC [21]: 1.45 µM (≈ 4 µg/mL) | MIC [12]: 1.45 µM (≈ 4 µg/mL) | MIC [22]: 1.45 µM (≈ 4 µg/mL) | MIC [23]: 0.362 µM (≈ 1 µg/mL) | MIC [24]: 1.45 µM (≈ 4 µg/mL) | MIC [25]: 1.45 µM (≈ 4 µg/mL)

SMILES: CC(=O)N[C@@H](CCCN=C(N)N)C(=O)N[C@@H](CCCN=C(N)N)C(=O)N[C@@H](Cc1c[nH]c2ccccc12)C(=O)N[C@@H](Cc1c[nH]c2ccccc12)C(=O)N[C@@H](CS)C(=O)N[C@@H](CCCN=C(N)N)C(N)=O [RRWWCR]
MIC [26]: 6.24 µM (≈ 6.26 µg/mL) | MIC [27]: 26 µM and 12.5 µM | MIC [28]: ≥ 52 µM

SMILES: CC[C@H](C)[C@H](NC(=O)[C@H](CO)NC(=O)[C@@H](NC(=O)[C@H](CCCCN)NC(=O)[C@H](Cc1ccccc1)NC(=O)[C@@H]1CCCN1C(=O)[C@@H](N)[C@@H](C)O)[C@@H](C)CC)C(=O)N[C@@H](Cc1cnc[nH]1)C(=O)N[C@@H](CC(C)C)C(N)=O [TPFKISIHL]
MIC [29]: 14.2 µM (≈ 15 µg/mL) | MIC [30]: 14.2 µM (≈ 15 µg/mL) | MIC (Candida albicans): 2.37 µM (≈ 2.5 µg/mL) | MIC [31]: 28.4 µM (≈ 30 µg/mL) | MIC [9]: 14.2 µM (≈ 15 µg/mL) | MIC [32]: 9.48 µM (≈ 9.99 µg/mL) | MIC [33]: 14.2 µM (≈ 15 µg/mL) | MIC [34]: 14.2 µM (≈ 15 µg/mL)

SMILES: NC(=O)C[C@H](NC(=O)CNC(=O)[C@H](Cc1ccccc1)NC(=O)[C@@H](N)Cc1c[nH]c2ccccc12)C(=O)N[C@@H](CS)C(=O)NCC(=O)N[C@@H](CC(N)=O)C(=O)N1CCC[C@H]1C(=O)N[C@@H](CCCN=C(N)N)C(=O)N[C@@H](Cc1cnc[nH]1)C(=O)N[C@@H](CS)C(=O)NCC(=O)O [WFGNCGNPRHCG]
MIC (Fusarium graminearum): ≥ 70 µM

SMILES: CC[C@H](C)[C@H](NC(=O)[C@@H]1CCCN1C(=O)[C@H](CC(N)=O)NC(=O)[C@H](Cc1cnc[nH]1)NC(=O)[C@@H](NC(=O)[C@@H]1CCCN1C(=O)[C@H](C)NC(=O)[C@H](CC(C)C)NC(=O)[C@@H]1CCCN1C(=O)[C@H](CCC(N)=O)NC(=O)[C@@H](NC(=O)[C@@H](NC(=O)[C@@H]1CCCN1C(=O)[C@@H](N)Cc1ccc(O)cc1)C(C)C)[C@@H](C)O)C(C)C)C(=O)N[C@@H](CO)C(=O)O [YPVTQPLAPVHNPIS]
MIC [21]: 1.91 µM (≈ 3.13 µg/mL) | MIC [35]: 3.83 µM (≈ 6.25 µg/mL)

Further lines, results first:

MIC (Staphylococcus aureus): 2090 µM (≈ 3000 µg/mL) | MIC (Escherichia coli): 2090 µM (≈ 3000 µg/mL) | MIC [1]: ≥ 2090 µM
SMILES: NCCCC[C@H](NC(=O)CNC(=O)[C@H](Cc1ccccc1)NC(=O)[C@H](CCCCN)NC(=O)[C@@H](N)CCC(=O)O)C(=O)N[C@@H](CC(=O)O)C(=O)N[C@@H](CCCCN)C(=O)N[C@@H](CO)C(=O)N1CCC[C@H]1C(=O)N[C@@H](CCCCN)C(=O)N[C@@H](Cc1ccccc1)C(=O)N[C@@H](CCC(N)=O)C(=O)O [EKFGKDKSPKFQ]

MIC [2]: 9.5 µM (≈ 12.4 µg/mL) | MIC [3]: 4.8 µM (≈ 6.25 µg/mL) | MIC [4]: 19 µM (≈ 24.8 µg/mL) | MIC [5]: 9.5 µM (≈ 12.4 µg/mL)
SMILES: CC[C@H](C)[C@H](NC(=O)[C@H](CC(C)C)NC(=O)CNC(=O)[C@H](C)NC(=O)[C@H](CC(C)C)NC(=O)[C@@H](N)Cc1ccccc1)C(=O)NCC(=O)NCC(=O)N[C@@H](CC(C)C)C(=O)N[C@@H](C)C(=O)N[C@@H](CCCCN)C(=O)N[C@@H](CCSC)C(=O)N[C@@H](CC(C)C)C(N)=O [FLAGLIGGLAKML]

MIC (Leuconostoc lactis): 23.1 µM (≈ 50 µg/mL) | MIC (Listeria innocua): ≥ 46.3 µM | MIC (Streptococcus uberis): ≥ 46.3 µM | MIC (Pasteurella multocida): ≥ 46.3 µM | MIC (Staphylococcus aureus): > 46.3 µM | MIC (Bacillus cereus): ≥ 46.3 µM | MIC (Escherichia coli): > 46.3 µM | MIC (Micrococcus luteus): ≥ 46.3 µM | MIC [6]: ≥ 46.3 µM
SMILES: CC[C@H](C)[C@H](NC(=O)[C@H](CO)NC(=O)CNC(=O)[C@@H](NC(=O)[C@H](CC(C)C)NC(=O)CN)[C@@H](C)CC)C(=O)NCC(=O)N[C@@H](CCCCN)C(=O)N[C@@H](C)C(=O)N[C@@H](CC(C)C)C(=O)NCC(=O)NCC(=O)N[C@@H](CC(C)C)C(=O)N[C@@H](CC(C)C)C(=O)N[C@H](C(=O)N[C@@H](CC(=O)O)C(=O)N[C@H](C(=O)N[C@@H](CC(C)C)C(=O)N[C@@H](CCCCN)C(=O)N1CCC[C@H]1C(=O)N[C@@H](CCCCN)C(=O)N[C@@H](CC(C)C)C(=O)O)C(C)C)C(C)C [GLIGSIGKALGGLLVDVLKPKL]
